Our source for the Kd values is article PMC12933751 (RSC Advances, 2026).

The assay has as its target T1, ArnT (undecaprenyl phosphate-alpha-4-amino-4-deoxy-L-arabinose arabinosyl transferase) (Pseudomonas aeruginosa, UniProt Q02R27).
T1 sequence (Q02R27 1-549): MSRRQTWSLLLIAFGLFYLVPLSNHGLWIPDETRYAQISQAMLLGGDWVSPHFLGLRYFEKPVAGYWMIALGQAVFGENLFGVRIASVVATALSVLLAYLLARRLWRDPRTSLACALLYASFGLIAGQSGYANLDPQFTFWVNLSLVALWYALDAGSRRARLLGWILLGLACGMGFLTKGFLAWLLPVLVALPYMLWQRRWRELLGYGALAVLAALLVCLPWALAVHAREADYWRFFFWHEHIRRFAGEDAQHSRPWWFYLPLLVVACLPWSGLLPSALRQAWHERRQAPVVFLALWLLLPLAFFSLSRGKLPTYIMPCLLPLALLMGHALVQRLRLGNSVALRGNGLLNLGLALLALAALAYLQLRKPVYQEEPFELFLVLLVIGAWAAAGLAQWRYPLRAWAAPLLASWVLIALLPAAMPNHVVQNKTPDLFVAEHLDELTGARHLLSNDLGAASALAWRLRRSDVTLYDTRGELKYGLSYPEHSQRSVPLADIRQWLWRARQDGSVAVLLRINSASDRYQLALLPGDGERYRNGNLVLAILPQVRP
As to the kind of experiment: intrinsic tryptophan fluorescence quenching titration, one-site binding fit.

Regarding `C[C@@]12CC[C@@H]3[C@@](CC[C@@H]4[C@@](C)(COC(=O)C(=O)O)CCC[C@]43C)(CC1)C2` [FDO-H], the Kd is around 10 µM.
